Data taken from ChEMBL document CHEMBL5543127, “Design, Synthesis, and Biological Evaluation of 2-Phenoxyalkylhydrazide Benzoxazole Derivatives as Quorum Sensing Inhibitors with Strong Antibiofilm Effect” (J Med Chem, 2024).
≈ marks a conversion by molar mass, not a printed value. Calls of active or inactive are those of the source. No cut-off for these calls is given here.

Tests used:
Bacillus subtilis = test: Anti-microbial activity against Bacillus subtilis ATCC9372 incubated for 20 hrs By CLSI based micro-dilution method; format: functional
Bacillus pumilus = test: Anti-microbial activity against Bacillus pumilus CMCC63202 incubated for 20 hrs By CLSI based micro-dilution method; format: functional
Staphylococcus aureus [1] = test: Anti-microbial activity against erythromycin-susceptible Staphylococcus aureus ATCC25923 incubated for 20 hrs By CLSI based micro-dilution method; format: functional
Staphylococcus aureus [2] = test: Anti-microbial activity against methicillin-resistant Staphylococcus aureus ATCC43300 incubated for 20 hrs By CLSI based micro-dilution method; format: functional
Pseudomonas aeruginosa [3] = test: Anti-microbial activity against penicillin-susceptible Pseudomonas aeruginosa 27853 incubated for 20 hrs By CLSI based micro-dilution method; format: functional
Escherichia coli = test: Anti-microbial activity against penicillin-susceptible Escherichia coli ATCC25922 incubated for 20 hrs By CLSI based micro-dilution method; format: functional
Pseudomonas aeruginosa [4] = test: Anti-microbial activity against Pseudomonas aeruginosa PAO1 incubated for 20 hrs By CLSI based micro-dilution method; format: functional
[5] = Inhibition of quorum sensing system in Pseudomonas aeruginosa PAO1 at logarithmic growth period assessed as inhibition of pyocyanin production at 102.4 microg/ml incubated for 18 hrs by pyocyanin inhibition assay; conditions: dose 102.4 µg/ml
Pseudomonas aeruginosa [6] = test: Antibacterial activity against Pseudomonas aeruginosa PAO1 at logarithmic growth phase assessed as growth inhibition at 153.6 microg/ml measured upto 25 hrs by growth curve assay; format: functional, organism-based; conditions: dose 153.6 µg/ml
Pseudomonas aeruginosa [7] = test: Inhibition of protease in logarithmic growth phase Pseudomonas aeruginosa PAO1 assessed as inhibition rate at 102.4 microg/ml measured after 32 hrs; conditions: dose 102.4 µg/ml
Pseudomonas aeruginosa [8] = test: Antibiofilm activity against logarithmic growth phase Pseudomonas aeruginosa PAO1 assessed as inhibition of biofilm formation at 16 microg/ml incubated for 20 hrs by crystal violet staining based analysis; format: functional; conditions: for inhibition: dose 16.0 µg/ml
Pseudomonas aeruginosa [9] = test: Antibiofilm activity against logarithmic growth phase Pseudomonas aeruginosa PAO1 assessed as inhibition of biofilm formation at 32 microg/ml incubated for 20 hrs by crystal violet staining based analysis; format: functional
Pseudomonas aeruginosa [10] = test: Induction of anti-bacterial effect in Pseudomonas aeruginosa PAO1 assessed as synergistic effect by measuring reduction in bacterial survival in presence of ciprofloxacin measured after 24 hrs incubation; format: functional, organism-based; conditions: dose 8-128 µg/ml
Pseudomonas aeruginosa [11] = test: Induction of anti-bacterial effect in Pseudomonas aeruginosa PAO1 assessed as synergistic effect by measuring reduction in bacterial survival in presence of clarithromycin measured after 24 hrs incubation; format: functional, organism-based; conditions: dose 8-128 µg/ml
Erythrocyte = test: Hemolytic activity in mouse RBC isolated from eye ball assessed as hemolysis at 256 microg/ml incubated for 1 hr; format: toxicity, cell-based; conditions: dose 256 µg/ml
Pseudomonas aeruginosa [12] = test: Antibacterial activity against Pseudomonas aeruginosa 27853 at logarithmic growth phase assessed as growth inhibition at 153.6 microg/ml measured upto 25 hrs by growth curve assay; format: functional, organism-based; conditions: dose 153.6 µg/ml
Pseudomonas aeruginosa [13] = test: Anti-virulence activity against logarithmic growth phase Pseudomonas aeruginosa PAO1 assessed as inhibition of Rhamnolipid production at 102.4 microg/ml measured after 24 hrs; format: functional

SMILES	MIC (Bacillus subtilis) [µg/mL]	MIC (Bacillus pumilus) [µg/mL]	MIC (Staphylococcus aureus [1]) [µg/mL]	MIC (Staphylococcus aureus [2]) [µg/mL]	MIC (Pseudomonas aeruginosa [3]) [µg/mL]	MIC (Escherichia coli) [µg/mL]	MIC (Pseudomonas aeruginosa [4]) [µg/mL]	inhibition [5]	Activity (Pseudomonas aeruginosa [6])	inhibition (Pseudomonas aeruginosa [7])	inhibition (Pseudomonas aeruginosa [8])	inhibition at 32 µg/mL (Pseudomonas aeruginosa [9]) [%]	Activity (Pseudomonas aeruginosa [10])	Activity (Pseudomonas aeruginosa [11])	Activity (Erythrocyte)	Activity (Pseudomonas aeruginosa [12])	inhibition at 102.4 µg/mL (Pseudomonas aeruginosa [13]) [%]	inhibition at 16 µg/mL (Pseudomonas aeruginosa [8]) [%]
Cc1ccc(C(=O)NNc2nc3ccccc3s2)cc1	512 (≈ 1810 µM)	256 (≈ 903 µM)	512 (≈ 1810 µM)	256 (≈ 903 µM)	512 (≈ 1810 µM)	> 512	> 512	62.8%	inactive	> 20%	Active	> 25.4	Dose-Dependent Effect	Dose-Dependent Effect	Non-Toxic	inactive	–	–
Clc1ccc(/C=N/Nc2nc3ccccc3o2)cc1	512 (≈ 1880 µM)	> 512	64 (≈ 236 µM)	512 (≈ 1880 µM)	> 512	> 512	> 512	inactive	inactive	21.4%	–	–	–	–	–	inactive	–	–
COc1ccc(/C=N/Nc2nc3ccccc3o2)cc1OC	512 (≈ 1720 µM)	256 (≈ 861 µM)	128 (≈ 431 µM)	256 (≈ 861 µM)	> 512	> 512	> 512	40.3%	inactive	21.9%	Active	> 25.4	–	–	–	inactive	–	–
O=C(CCCCOc1ccc(Cl)cc1)NNc1nc2ccc(Cl)cc2o1	512 (≈ 1300 µM)	256 (≈ 649 µM)	256 (≈ 649 µM)	256 (≈ 649 µM)	> 512	> 512	> 512	Active	–	inactive	Active	> 25.4	Dose-Dependent Effect	Dose-Dependent Effect	–	–	> 40	–
COc1ccc(OCCCC(=O)NNc2nc3ccccc3o2)cc1	512 (≈ 1500 µM)	512 (≈ 1500 µM)	64 (≈ 187 µM)	128 (≈ 375 µM)	128 (≈ 375 µM)	> 512	> 512	inactive	–	30%	Active	> 25.4	–	–	–	–	> 40	–
O=C(NNc1nc2ccccc2s1)c1ccccc1F	512 (≈ 1780 µM)	512 (≈ 1780 µM)	> 512	> 512	512 (≈ 1780 µM)	> 512	> 512	62.8%	inactive	> 20%	Active	> 25.4	Dose-Dependent Effect	Dose-Dependent Effect	Non-Toxic	inactive	–	–
Cn1/c(=N/NC(=O)c2cccc(Cl)c2)sc2ccccc21	> 512	> 512	> 512	> 512	> 512	> 512	> 512	40.1%	inactive	> 20%	Active	> 25.4	–	–	–	inactive	–	–
O=C(COc1cccc(F)c1)NNc1nc2ccccc2o1	512 (≈ 1700 µM)	> 512	512 (≈ 1700 µM)	> 512	512 (≈ 1700 µM)	> 512	512 (≈ 1700 µM)	inactive	inactive	10%	–	–	–	–	–	inactive	–	–
O=C(CCCCOc1ccc(F)cc1)NNc1nc2ccc(Cl)cc2o1	512 (≈ 1360 µM)	256 (≈ 678 µM)	512 (≈ 1360 µM)	256 (≈ 678 µM)	> 512	> 512	> 512	Active	–	inactive	Active	> 25.4	–	–	–	–	> 40	–
O=C(CCCOc1cccc(C(F)(F)F)c1)NNc1nc2ccccc2o1	512 (≈ 1350 µM)	> 512	256 (≈ 675 µM)	512 (≈ 1350 µM)	256 (≈ 675 µM)	> 512	> 512	inactive	inactive	30%	Active	> 25.4	Dose-Dependent Effect	Dose-Dependent Effect	–	inactive	> 40	–
O=C(COc1ccc(Cl)cc1)NNc1nc2ccccc2o1	512 (≈ 1610 µM)	> 512	512 (≈ 1610 µM)	256 (≈ 806 µM)	512 (≈ 1610 µM)	> 512	> 512	46.9%	inactive	10%	–	> 25.4	Dose-Dependent Effect	Dose-Dependent Effect	–	inactive	–	> 50
O=C(CCCCOc1ccc(Cl)cc1)NNc1nc2ccccc2s1	> 512	256 (≈ 681 µM)	256 (≈ 681 µM)	512 (≈ 1360 µM)	> 512	> 512	> 512	Active	inactive	–	Active	> 25.4	–	–	–	inactive	> 40	–
O=C1C=C(Br)/C(=C\Br)O1	64 (≈ 252 µM)	256 (≈ 1010 µM)	32 (≈ 126 µM)	128 (≈ 504 µM)	256 (≈ 1010 µM)	256 (≈ 1010 µM)	128 (≈ 504 µM)	–	–	–	–	–	–	–	–	–	44.9	–
Cc1cccc2sc(NNC(=O)CCCCOc3ccc(F)cc3)nc12	512 (≈ 1370 µM)	512 (≈ 1370 µM)	512 (≈ 1370 µM)	512 (≈ 1370 µM)	> 512	> 512	> 512	Active	inactive	> 20%	Active	> 25.4	Dose-Dependent Effect	Dose-Dependent Effect	–	inactive	–	–
COc1ccc(OCCCCC(=O)NNc2nc3ccccc3o2)cc1	512 (≈ 1440 µM)	> 512	512 (≈ 1440 µM)	> 512	512 (≈ 1440 µM)	> 512	> 512	Active	–	14.6%	Active	> 25.4	Dose-Dependent Effect	Dose-Dependent Effect	Non-Toxic	–	52.1	–
O=C(CCCOc1ccc(Cl)cc1)NNc1nc2ccccc2o1	512 (≈ 1480 µM)	512 (≈ 1480 µM)	256 (≈ 740 µM)	256 (≈ 740 µM)	512 (≈ 1480 µM)	> 512	> 512	inactive	–	30%	Active	> 25.4	Dose-Dependent Effect	Dose-Dependent Effect	–	–	–	–
